These results are taken from patent US7514579B2, “Boronic chalcone derivatives and uses thereof” (Johns Hopkins University, priority 2002, dated 2009).

Holding throughout (conditions): MTT growth inhibition, 96 hours exposure
In assay [1] the test system is MDA-MB-435 (estrogen independent) human breast cancer cells. As to the kind of experiment: MTT survival assay, MDA-MB-435 cells. Format: cell-based. How it is done:
(§1) The cytotoxicity of the boronic chalcone analogs and carboxylic acid chalcones were evaluated and compared by MTT survival assays of human breast cancer MDA-MB-435, MDA-MB-231, Wt-MCF7, and MCF-10A cells treated at different concentrations of the analogs.
(§2) Human breast cancer MDA-MB-231 (estrogen independent) and wtMCF7 (estrogen dependent) human breast cancer cells were maintained in DMEM medium supplemented with 5% fetal bovine serum, 2 mM glutamine, and 100 units/mL penicillin/streptomycin. MDA-MB-435 (estrogen independent) human breast cancer cells were maintained in IMEM medium supplemented with 5% fetal bovine serum and 2 mM glutamine. Each cell line used has unique growth characteristics spanning the spectrum of tumor invasiveness, differentiation and estrogen dependence. Normal breast epithelial cell lines, MCF-10A and MCF-12A, were maintained in 5% and 10% horse serum in DMEM:Ham's F12 media, respectively, supplemented with 2 mM glutamine, 100 units/mL penicillin/streptomycin, 0.02 μg/mL EGF, 0.01 mg/mL insulin, and 0.1 μg/mL cholera toxin.
(§3) Cells were incubated at 37° C. in a 5% CO2 atmosphere. The MTT colorimetric assay was used to determine growth inhibition (Mosmann, T., J. Immunol. Methods, 1983, 65, 55-63). Cells were plated in 96-well plates and allowed to attach for 24 hours. Chalcone derivatives based on compounds 20 and 21 below were dissolved in DMSO at 10 mM concentrations. Cells were expose in quadruplicate well to chalcone concentrations of 0.5-100 µM for 96 hours. After 96 hours the media was aspirated, and 100 µL of 1 mg/mL MTT solution (Sigma Chemical Co.) diluted in serum free media was added to each well. After 4 hours of incubation, the MTT solution was removed and 200 µL of 1:1 (v/v) solution of DMSO:ethanol was added to each well to dissolve formazan crystals. The absorbance at A540nm was determined on a plate reader. IC50 values were determined from log plots of percent of control vs. concentration. Each compound was assayed twice in quadruplicate. Analogs 3g and 9 have been previously described (Stoll R., et al., supra; Kussie, P. H., et al., supra) and were included for comparative purposes.
In general terms: Formazan colour is commonly taken as a measure of viable cells.

Assay [2] concerns MDA-MB-231 (estrogen independent) human breast cancer cells. The experiment in a line: MTT survival assay, MDA-MB-231 cells. The assay is classed as cell-based. How it is done:
as §1, §2, §3

Assay [3] has as its system wtMCF7 (estrogen dependent) human breast cancer cells. The experiment in a line: MTT survival assay, Wt-MCF7 cells. The assay is classed as cell-based. On the procedure:
as §1, §2, §3

The subject of assay [4] is MCF-10A normal breast epithelial cell line. As to the kind of experiment: MTT survival assay, MCF-10A cells. Format: cell-based, human. On the procedure: as §1, §2, §3
For assay [5], the system named is MCF-12A normal breast epithelial cell line. The experiment in a line: MTT survival assay, MCF-12A cells. The assay is classed as cell-based, human. How it is done:
as §1, §2, §3

The structures appear in SMILES notation.

One may read the IC50 as the concentration that gives 50% inhibition. Lower therefore signals greater potency. For `O=C(/C=C/c1ccc(I)cc1)c1ccc(B(O)O)cc1` [Compound 3a], the half-inhibitory concentration (IC50) in assay [1] stood at 10 µM; in assay [2] it was 8.8 µM; in assay [3] it was 7 µM; in assay [4], 75 µM; in assay [5] it was 63 µM.
On to `O=C(/C=C/c1ccc(Cl)c(Cl)c1)c1ccc(B(O)O)cc1` [Compound 3b], for which the 50% inhibitory concentration (IC50) in assay [1] was found to be 3.5 µM; in assay [2], 9.5 µM; in assay [3], 5 µM; in assay [4], 18 µM; in assay [5], 11 µM.
In the same order, the values of `O=C(/C=C/c1ccc(F)c(Cl)c1)c1ccc(B(O)O)cc1` [Compound 3c] are 16 µM, 8.5 µM, 6 µM, 25 µM and 22 µM.
`O=C(/C=C/c1ccc(F)c(F)c1)c1ccc(B(O)O)cc1` [Compound 3d]: the IC50 in assay [1] turned out to be 8.8 µM; in assay [2], 8.8 µM; in assay [3] it was 7.8 µM; in assay [4], 18 µM; in assay [5], 39 µM.
As to `O=C(/C=C/c1ccc(F)c(Br)c1)c1ccc(B(O)O)cc1` [Compound 3e], the IC50 stood at 8.8 µM in assay [1]; 9.5 µM in assay [2]; 8.5 µM in assay [3]; 17 µM in assay [4]; 38 µM in assay [5].
For `O=C(O)COc1ccc(C(=O)/C=C/c2ccc(I)cc2)cc1` [Compound 3f], the half-maximal inhibitory concentration (IC50) amounted to 18 µM in assay [1]; 44 µM in assay [2]; 9 µM in assay [3]; 44 µM in assay [4]; 38 µM in assay [5].
Turning to `O=C(O)COc1ccc(C(=O)/C=C/c2ccc(Cl)c(Cl)c2)cc1` [Compound 3g, reference compound], the IC50 in assay [1] was determined as 9 µM; in assay [2] it was 9 µM; in assay [3], 13 µM; in assay [4], 13 µM; in assay [5] it was 15 µM.
Turning to `O=C(/C=C/c1ccc(I)cc1)c1ccc(O)cc1` [Compound 6], the IC50 in assay [1] is 4.5 µM; in assay [2], 8 µM; in assay [3], 7 µM; in assay [4], 15 µM; in assay [5], 30 µM.
For the compound `O=C(/C=C/c1ccc(I)cc1)c1ccc(OCB(O)O)cc1` [Compound 7], the IC50 came out at 18 µM in assay [1]; 11 µM in assay [2]; 9.5 µM in assay [3]; 38 µM in assay [4]; 100 µM in assay [5].
For `O=C(/C=C/c1ccc(Cl)c(Cl)c1)c1ccc(B(O)O)cc1` [Compound 8], in that order: 4 µM, 8 µM, 5.5 µM, 18 µM and 15 µM.
For `O=C(O)COc1ccc(C(=O)/C=C/c2ccc(Cl)c(Cl)c2)cc1` [Compound 9, reference compound], in that order: 13 µM, 18 µM, 15 µM, 12 µM and 28 µM.
